Experimental data: patent US20090191173A1, “Induction Of Neurogenesis And Stem Cell Therapy In Combination With Copolymer 1” (priority 2004, published 2009)

Assays:
APP/PS1 Tg mice [1] = test: Hippocampal immunohistochemistry in APP/PS1 Tg mice (Aβ plaques, microglia, NeuN, BrdU, DCX); assay type: in vivo, mouse
Method: (xxii) Glatiramer acetate vaccination. Each mouse was subcutaneously injected five times with a total of 100 μg of glatiramer acetate (GA (TV-5010), MW 13.5-18.5 kDa, average 16 kDa, Teva Pharmaceutical Industries Ltd., Petach Tikva, Israel), emulsified in 200 μl PBS×1, from experimental day 0 until day 24, twice during the first week and once a week thereafter.
(xxiv) Administration of BrdU and tissue preparation. BrdU was dissolved by sonication in PBS and injected i.p. into each mouse (50 mg/kg body weight; 1.25 mg BrdU in 200 μl PBS×1). Starting from experimental day 22 after the first GA vaccination, BrdU was injected i.p. twice daily, every 12 h for 2.5 days, to label proliferating cells. Three weeks after the first BrdU injection the mice were deeply anesthetized and perfused transcardially, first with PBS and then with 4% paraformaldehyde. The whole brain was removed, postfixed overnight, and then equilibrated in phosphate-buffered 30% sucrose. Free-floating 30-μm sections were collected on a freezing microtome (Leica SM2000R) and stored at 4° C. prior to immunohistochemistry.
For immunohistochemistry, tissue sections were treated with a permeabilization/blocking solution containing 10% FCS, 2% bovine serum albumin, 1% glycine, and 0.05% Triton X-100 (Sigma-Aldrich, St. Louis). Tissue sections were stained overnight at 4° C. with specified combinations of the following primary antibodies: rat anti-BrdU (1:200; Oxford Biotechnology, Kidlington, Oxfordshire, UK), goat anti-DCX [doublecortin] (1:400; Santa Cruz Biotechnology), and mouse anti-NeuN [neuronal nuclear protein] (1:200; Chemicon, Temecula, Calif.). Secondary antibodies were FITC-conjugated donkey anti-goat, Cy-3-conjugated donkey anti-mouse, and Cy-3- or Cy-5-conjugated donkey anti-rat (1:200; Jackson ImmunoResearch, West Grove, Pa.). For labeling of microglia we used either CD11b (MAC1; 1:50; BD-Pharmingen) or FITC-conjugated Bandeiraea simplicifolia isolectin B4 (IB4, 1:50; Sigma-Aldrich, Rehovot). To detect expression of cell-surface MHC-II proteins we used anti-MHC-II Abs (rat, clone IBL-5/22; 1:50; Chemicon, Temecula, Calif.). To detect expression of human Aβ we used anti-Aβ (human amino-acid residues 1-17) (mouse, clone 6E10, Chemicon, Temecula, Calif.). Expression of IGF-I was detected by goat anti-IGF-I Abs (1:20; R&D Systems). Expression of TNF-α was detected by goat anti-TNF-α Abs (1:100; R&D Systems). T cells were detected with anti-CD3 polyclonal Abs (rabbit, 1:100; DakoCytomation, Calif.). Propidium iodide (1 μg/ml; Molecular Probes, Invitrogen, Carlsbad, Calif.) was used for nuclear staining.
For in-vivo experiments, the number of Aβ^+ plaques and CD11b^+/IB-4^+ microglia in the hippocampus were counted at 300-μm intervals from 6-8 coronal sections (30 μm) from each mouse. Neurogenesis in the DG was evaluated by counting of premature neurons (DCX^+), proliferating cells (BrdU^+), and newly formed mature neurons (BrdU^+/NeuN^+) in six coronal sections (30 μm) from each mouse. Specificity of BrdU^+/NeuN^+ co-expression was assayed using the confocal microscope (LSM 510) in optical sections at 1-μm intervals/. Cell counts, numbers of Aβ^+ plaques, plaque areas, and intensity of NeuN staining per unit area in the DG were evaluated automatically using Image-Pro Plus 4.5 software (Media Cybernetics).

EAE mice [2] = test system: EAE mice
Method: GA treatment was applied by 5-8 consecutive daily subcutaneous injections (2 mg/mouse) in different stages of disease [i.e., (1) starting immediately after EAE induction (prevention treatment), (2) starting after appearance of disease manifestations at day 20 (suppression treatment), or (3) starting during the chronic phase 45 days after induction (delayed suppression).
(xl) Perfusion. Animals were deeply anesthetized with Nembutal and perfused transcardially with 2.5% paraformaldehyde. Brains were removed, postfixed in 1% paraformaldehyde and cryoprotected with 15% sucrose solution in PBS. Free-floating sections (16 μm thick) were cut coronally or sagitaly with a sliding microtome (Leica SM 2000r) through the entire brain and collected serially in PBS.
(xli) Immunohistochemistry. To detect BrdU-incorporated cells, sections were denatured in 2M HCl in PBS at 37° C. for 30 min and then neutralized with 0.1M borate buffer (pH 8.5) for 10 min at room temperature. To detect specific cell types, sections were pre-incubated in PBS solution containing 20% serum and 0.5% Triton-X-100 for 1 h, and then incubated overnight at room temperature with primary antibodies. The following primary antibodies were used: goat anti-doublecortin (DCX) C-18 (1:200, Santa Cruz Biotechnology, Santa Cruz, Calif.), mouse anti-NeuN (1:300, Chemicon, Temecula, Calif.), mouse anti-GFAP (1:100, Pharmingen, San Jose, Calif.), rabbit anti-phospho-histone (1:200, Upstate Biotechnology, Charlottesville, Va.), rat anti-BrdU (1:200, Harlan, Indianapolis, Ind.), rat anti-CD11b (1:50, Pharmingen) and chicken anti-BDNF (1:50, Promega, Madison, Wis.). […]
(xlii) Microscopy. Stained sections were examined and photographed by a confocal microscope (Axiovert 100M; Zeiss, Oberkochen, Germany), or by a fluorescence microscope (E600; Nikon, Tokyo, Japan), equipped with Plan Fluor objectives connected to CCD camera (DMX1200F, Nikon). Digital images were collected and analyzed using Image Pro+software. […]

APP/PS1 Tg mice [3] = test: Morris water maze (MWM) in APP/PS1 double-transgenic AD mice; assay type: in vivo, mouse; conditions: GA (TV-5010) s.c. vaccination, tested five weeks after first injection
EAE mice [4] = test: Proliferation, migration and differentiation of neuronal progenitor cells in EAE mice (BrdU, DCX, NeuN); assay type: in vivo, mouse
Method: (xxxix) BrdU. 5-Bromo-2′-deoxyuridine (BrdU, Sigma), a thymidine analog incorporating into the DNA of dividing cells, was injected intraperitoneally (50 mg/kg), either concurrently with GA treatment (once each day), or immediately after completion of GA injections (twice each day).
(xli) Immunohistochemistry. […] Control slides were incubated with secondary antibody alone.
(xliii) Quantification. […] Quantification was performed in coronal sections, in the SVZ starting at the level of the medial septum and 640 μm backward, and in the hippocampal DG (in both blades for BrdU/DCX or in the upper blade for DCX) through its septotemporal axis. Quantification in the RMS was done on sagital sections starting at 1 mm from the median line of the brain and 640 μm laterally. The Results for each brain structure were averaged from 8 unilateral levels per mouse (80 μm apart, 3-4 mice in each treatment group) and are expressed as change fold from naive controls. Quantification of BrdU/NeuN double positive cells in the cortex was performed in areas of 0.15 mm^2, selected at random (10 sections counted/mouse, 3 mice in each treatment group).
(xliv) Statistical analysis. For BrdU and DCX analysis, the mean±SEM (averaged from 8 unilateral levels per mouse, 3-4 mice in each treatment group) was subjected to one-way analysis of variance (ANOVA), followed by Fishers' least significant difference (LSD) at comparison-wise error rate of 0.05, where appropriate. Since control values for BrdU incorporation were reduced as a function of time, results were expressed as change fold from naive controls injected concurrently with BrdU. The number of BrdU/NeuN double-positive cells in the cortex was averaged from 10 sections per mouse (3 mice in each treatment group) and expressed as cells per mm^3.

EAE mice [5] = test: Clinical manifestations of MOG 35-55-induced EAE; assay type: in vivo; conditions: 5-8 daily s.c. injections 2 mg/mouse; prevention, suppression or delayed suppression
[6] = GA vaccinated vs untreated Tg mice
[7] = EAE+GA mice, one month after completion of GA treatment

glatiramer acetate [GA]
number of Aβ plaques (APP/PS1 Tg mice [1]; GA (TV-5010) vaccinated vs untreated Tg mice, 6 weeks later): significantly fewer plaques
BrdU+ cells in the dentate gyrus (APP/PS1 Tg mice [1]; [6]): significantly more BrdU^+ cells
CD11b+ microglia (APP/PS1 Tg mice [1]; [6]): significantly fewer CD11b^+ microglia
area occupied by the plaques (APP/PS1 Tg mice [1]; [6]): significantly smaller
staining for NeuN (APP/PS1 Tg mice [1]; [6]): significantly more intense staining for NeuN
MHC-II expression by microglia (APP/PS1 Tg mice [1]; GA-vaccinated Tg mice): most of the microglia adjacent to residual Aβ^+ plaques expressed MHC-II
DCX+ cells in the DG (APP/PS1 Tg mice [1]; relative to non-Tg littermates): slightly but significantly more
MAC-1 expression (microglial activation) (EAE mice [2]; EAE+GA vs EAE mice): significantly reduced
neuronal damage in brain (EAE mice [2]; EAE+GA vs EAE mice, prevention or suppression treatment): considerably less damage
neuronal malformations or perivascular infiltrations (EAE mice [2]; mouse, in vivo): did not find neuronal malformations or perivascular infiltrations
MWM performance (spatial learning/memory) (APP/PS1 Tg mice [3]): superior to that of the untreated Tg mice
migration of neuronal progenitors outside the RMS (EAE mice [4]; EAE mice treated with GA): migration into a region corresponding to the lateral cortical stream (LCS)
neuronal proliferation in the hippocampus (BrdU incorporation, DCX expression) (EAE mice [4]; EAE+GA mice): increased proliferation
BDNF expression by migrating DCX+ cells (EAE mice [4]; EAE+GA mice, nucleus accumbens and hippocampus): manifested extensive expression of BDNF
BrdU+/NeuN+ cells as share of all NeuN+ cells in the cortex (EAE mice [4]; [7]): 1.3%
BrdU+/NeuN+ double-labeled cells in the cortex (EAE mice [4]; [7]): 128±46 /mm^3
progenitors migrating to lesions (EAE mice [4]; EAE+GA vs EAE mice): much higher
neuronal proliferation in the SVZ (EAE mice [4]; EAE+GA vs untreated EAE mice and controls): augmented neuronal proliferation in the SVZ
BrdU or DCX expression in SVZ and DG (EAE mice [4]; GA injection to naive mice (without EAE)): did not result in significant elevation
BrdU expression in the RMS, increase over EAE mice (EAE mice [4]; GA on days 20-25 (suppression)): 2.2 fold
BrdU expression in the RMS, increase over control (EAE mice [4]; GA on days 20-25 (suppression)): 7.8 fold
DCX expression in the RMS, increase over EAE mice (EAE mice [4]; GA on days 20-25 (suppression)): 1.6 fold
DCX expression in the RMS, increase over control (EAE mice [4]; GA on days 20-25 (suppression)): 2.6 fold
mobilization of progenitors into the RMS (EAE mice [4]; injection of GA alone (no EAE)): enhanced mobilization of progenitors into the RMS, but to a lower extent
increase of new neurons in the cortex over EAE mice (EAE mice [4]; one month after completion of GA treatment): 2.6 fold
DCX expression in the SVZ, elevation over EAE and control (EAE mice [4]; prevention treatment): 4 fold
clinical manifestations of EAE (EAE mice [5]): ameliorated the clinical manifestations of EAE regardless of the stage in which it was administered
